Assay in all cases: NCI tumour cell line growth inhibition, 48 h
Assay [1] relates to HOP-62 NSCLC.
The test system of assay [2] is EKVX NSCLC.
Assay [3] deals with BT-549 breast.
In assay [4] the test system is OVCAR-5 ovarian.
Assay [5] has as its system MALME-3M melanoma.
For assay [6], the system named is NCI-H226 lung.
In assay [7] the test system is DU-145 prostate.
Assay [8] has as its system LOX IMVI melanoma.
In assay [9] the test system is SNB-19 CNS.
The test system of assay [10] is CAKI-1 renal.

Where “and” joins values, the source holds several entries; their conditions need not be identical. Equal entries are not always repeated.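 The compound was tested at five concentrations on cells cultured in 96-well plates, with a 48-hour exposure period. GI50 is the concentration that inhibits growth by half. At the TGI there is no net growth.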

With `CN(C)c1ccc(/C=C\C2=[N+](C)c3ccccc3C2(C)C)cc1`, the GI50 in [1] is 0.842 µM; in [2], 1.29 µM; in assay [3] it was 0.423 µM; in [4], 3.18 µM; in assay [5], 0.456 µM; in [6], 2.68 µM. The GI50 in [7] is 0.473 µM; in assay [8], 0.356 µM; in assay [9], 0.775 µM; in assay [10], 1.82 µM. Further, the TGI in [1] is 21.6 µM; in assay [2] it was more than 100 µM; in [3], 11.2 µM; in assay [4], 43.8 µM; in assay [5] it was 16.5 µM; in [6] it was more than 55.2 µM. Besides, the TGI in [7] was 27 µM; in [8] it was 14.6 µM; in assay [9], 38.1 µM; in assay [10] it was 20.6 µM.

For `Nc1ccccc1C#C/C=C\C#Cc1ccccc1OC(F)(F)F`, the GI50 in [1] is 6.1 µM; in assay [2] it was 9.16 µM; in [3], 5.78 µM; in [4], 13 µM; in assay [5], 11.4 µM; in assay [6], 14 µM. In addition, the GI50 in assay [7] was 4.81 µM; in assay [8], 7.85 µM; in assay [9] it was 2.55 µM; in assay [10] it was 4.42 µM. The TGI in assay [1] turned out to be 20.6 µM; in assay [2] it was 58.7 µM; in assay [3], 22.5 µM; in assay [4], 44.1 µM; in assay [5] it was 38.1 µM; in assay [6], 40.3 µM. The TGI amounted to 29.9 µM in assay [7], 27 µM in [8], 9.72 µM in assay [9] and 28.2 µM in assay [10].

Take `CC(=O)OC1OC([C@@H]2c3cccc(O)c3C(=O)c3c(O)cc(C)cc32)C(O)C(O)C1O` (some centres not stated): the GI50 in assay [1] is 0.0985 µM; in assay [2], 0.026 µM; in assay [3] it was 0.0181 µM; in [4], 0.0323 µM; in assay [5], 0.0288 µM; in assay [6] it was 0.012 µM. In addition, the GI50 in assay [7] was 0.137 µM; in [8] it was less than 0.0141 µM; in assay [9], 0.392 µM; in assay [10], 0.0269 µM. Besides, the TGI worked out at 0.995 µM in assay [1]; 0.368 µM in assay [2]; 0.778 µM in assay [3]; 0.36 µM in assay [4]; 0.0902 µM in assay [5]; 0.0806 µM in [6]. In addition, the TGI in assay [7] amounted to 1.69 µM; in assay [8], 0.0481 µM; in assay [9] it was 21.4 µM; in assay [10] it was 0.241 µM.

`O=C(Nc1ccccc1)c1c(O)[nH]c(=S)[nH]c1=O`: the GI50 was 73.2 µM in [1]; 120 µM in [2]; 89.6 µM in assay [4]; 58.5 µM in assay [5]; 54 µM in assay [8]; 40.7 µM in [9]. Further, the GI50 in assay [10] is 28 µM. Besides, the TGI is 82.5 µM and > 250 µM in assay [1]; 103 µM and > 250 µM in assay [2]; 72 µM in assay [3]; 110 µM and > 250 µM in assay [4]; 96.6 µM and > 250 µM in [5]; 107 µM in assay [6]. Moreover, the TGI in assay [7] was 103 µM; in assay [8], 73.6 µM and > 250 µM; in [9], 118 µM and > 250 µM; in assay [10], 58.1 µM and 127 µM.

Consider `Cc1cc(-c2nc(C(=O)Nc3cc4oc(N5CCOCC5)nc4nc3N3CC[C@@H](O)C3)co2)ccn1`, for which the GI50 is 30.6 µM in assay [1]; more than 100 µM in [2]; 33 µM in [3]; more than 100 µM in assay [4]; 29.1 µM in assay [5]; more than 100 µM in [6]. The GI50 in [7] is 46.9 µM; in assay [8] it was 39.9 µM; in assay [9] it was 78.8 µM; in assay [10] it was 17.1 µM. The TGI in [1], in assay [2], in [3], in assay [4], in assay [5] and in assay [6] was more than 100 µM throughout. The TGI in assay [7] was more than 100 µM; in [8] it was more than 100 µM; in [9] it was more than 100 µM; in assay [10], 71.6 µM.

`OCCN(CCO)c1ncnc2c1ncn2Cc1ccc(CCl)cc1`: the GI50 was 23.8 µM in [1]; 16.6 µM in assay [2]; 11.7 µM in [3]; 14.1 µM in [4]; 12.8 µM in assay [5]; 23.4 µM in assay [6]. Moreover, the GI50 is 4.42 µM in assay [7], 16.4 µM in [8], 19.9 µM in assay [9] and 14.5 µM in assay [10]. The TGI amounted to 41.1 µM in assay [1]; 31.8 µM in assay [2]; 24.6 µM in assay [3]; 27.8 µM in [4]; 27.3 µM in assay [5]; 58 µM in assay [6]. In addition, the TGI turned out to be 16.1 µM in assay [7], 30.9 µM in [8], 41.2 µM in assay [9] and 30 µM in assay [10].

As to `Cc1ccc(NC(=O)Nc2ccc(-c3cccnc3)cc2N2CCC(CO)CC2)cc1`, the GI50 is 2.41 µM in assay [1]; 3.42 µM in assay [2]; 1.96 µM in [3]; 3.64 µM in [4]; 3.07 µM in [5]; 6.31 µM in assay [6]. For the same compound, the GI50 in assay [7] was 3.78 µM; in assay [8], 3.6 µM; in [9], 2.64 µM; in assay [10] it was 3.82 µM. Also, the TGI in assay [1] was more than 100 µM; in assay [2], more than 100 µM; in [3], 9.2 µM; in assay [4], more than 100 µM; in assay [5], more than 100 µM; in [6] it was more than 100 µM. In addition, the TGI in assay [7], in assay [8], in assay [9] and in assay [10] was more than 100 µM each time.

As to `CO/C(=N\N=C\c1ccc(C(F)(F)F)cc1)c1ccncc1`, the TGI in assay [1], in assay [2], in assay [3], in assay [4], in assay [5] and in assay [6] was more than 10 µM each time. Further, the TGI in assay [7], in assay [8], in [9] and in [10] was more than 10 µM throughout.

These data come from PubChem BioAssay (NCI).
